The text below walks through data of patent publication US4008223A, “6-Aza-3H-1,4-benzodiazepines” (Deutsche Gold- und Silber-Scheideanstalt vormals Roessler, priority 1971, dated 1977).

Series [1] relates to mice. Nature of the series: Cardiazol shock (anticonvulsive / anxiolytic effect). Particulars: Mus musculus, 1 h, oral, one hour before 150 mg/kg s.c. Cardiazol, 50% of animals with marked anticonvulsive effect. Format: in vivo. The source says:
The compounds of the present invention have a pronounced anxiolytic activity, i.e., they relieve or reduce anxiety. Such activity naturally cannot be measured directly in animals. […] A method for testing whether a compound has anticonvulsive properties and also therewith is anxiolytically active is the Cardiazol-Shock Method.
In order to compare the therapeutic value of the compounds of the present invention with the most closely related compounds in Littell U.S. Pat. No. 3,314,941 and Reeder U.S. Pat. No. 3,371,085 tests were conducted comparing the properties of the compounds of the present application and the Littell and Reeder patents in regard to anxiolytic effect (tested by Cardiazol-Shock).
The Cardiazol shock procedure was carried out according to the method of F.M. Berger et al in J. Pharmacol. Exper. Therap. Vol. 116, pages 337-342 (1956). With mice the subcutaneous injection of 150 mg/kg of Cardiazol first results in short lasting spasms, then long lasting and strong spasms and finally results in the death of all of the animals within 10 to 15 minutes. By the oral administration of the anticonvulsive acting test materials at various dosages one hour prior to the administration of the Cardiazol, the 100% lethal effect of the Cardiazol is reduced depending on the dosage. From the percentage of surviving animals in the individual test groups there was plotted graphically the dosage-effect line and from this the ED50 value was ascertained.

A short description of series [2]: rotating rod test (ataxic effect). Format: in vivo, mice. Particulars: mouse, rotating rod test; mice; oral; 50% of animals show a typical ataxic effect; read-out: ED50, ataxic effect (rotating rod). The source says: (§1) Furthermore, there is given in this table the ataxic activity. The ratio of ataxic activity to the anxiolytic activity is of the greatest significance in using a material as an anxiolytic agent. This quotient should be as large as possible since an ataxic activity is undesirable. Ataxic activity means that the coordination of the muscular movements is disturbed -- ataxic disturbance of the muscular coordination. This means at the dosage at which a marked anxiolytic activity is present there should not be found a noteworthy ataxice. The toxicity, in case the data exists above the ataxic activity, is no longer important since the amount which is toxic is always considerably higher than the amount at which 50% (ED50) of the animals have an ataxic effect. The ataxic effect was measured on mice on the pattern of the rotating rod.
(§2) In the rotating rod test the animals (mice) were firest placed on a rotating rod 15 minutes after the application of the test material and then were placed on the rotating rod every 15 minutes and the animals which fell down within 2 minutes measured positive. From the number of animals which fell down expressed in per cent there were drawn time-effect curves and the areas defined by it entered as percent effect in a probability network, the dosage-effect-line prepared and the ED50 read off. The ED50 mg/kg body weight of the mouse again specifies the dosage at which 50% of all the animals show a typical ataxic effect.

Series [3] concerns mice. Briefly: rotating rod test (ataxic effect). To be noted: quotient of ED50 ataxia / ED50 Cardiazol shock; should be as large as possible. It counts as in vivo.
Source text: as §1, §2

The conditions of series [4]: literature; cited from earlier work.
The conditions of series [5]: First Int. Pharmacological Meeting, Vol. 7, pages 311 et seq.; cited from earlier work.
The conditions of series [6]: on introduction of p-chlorine and alpha-methyl; literature; cited from earlier work.

For the compound `CC1N=C(c2ccccc2)c2nc(Cl)ccc2NC1=O` (racemic) [Example 4, 3-Methyl-5-phenyl-6-aza-7-chloro-1,2-dihydro-3H-1,4-benzodiazepinone-(2)], the ED50 in the series with mice [1] worked out at 18 mg/kg. Moreover, in series [2], the TD50 came to 78 mg/kg. For the same compound, the “ratio of ataxic activity to the anxiolytic activity” value (“ratio of ataxic activity” below) in the series with mice [3] was determined as 4.3.

As to `CN(C)CCCN1c2ccccc2Sc2ccc(Cl)cc21` [Chlorpromazine], in series [4], the antihistamine activity entry is “practically no antihistamine activity”.

`O=C1CN=C(c2ccccc2)c2nc(Cl)ccc2N1` [Example 1, 5-Phenyl-6-aza-7-chloro-1,2-dihydro-3H-1,4-benzodiazepinone-(2)]: the 50% effective dose (ED50) with mice [1] came to 6.3 mg/kg. The TD50 in series [2] was found to be 72 mg/kg. In the series on mice [3], the “ratio of ataxic activity” value was 11.4.

In turn, `O=C1CN=C(c2ccccc2Cl)c2nc(Cl)ccc2N1` [Example 6, 5-(o-Chlorophenyl)-6-aza-7-chloro-1,2-dihydro-3H-1,4-benzodiazepinone-(2)] registered an ED50 with mice [1] of 2.72 mg/kg. Besides, in series [2], the TD50 came to 45 mg/kg. In the series with mice [3], the “ratio of ataxic activity” value is listed as 16.5.

With `CN1C(=O)CN=C(c2ccccc2F)c2nc(Cl)ccc21` [Example 9, 1-Methyl-5-(o-fluorophenyl)-6-aza-7-chloro-1,2-dihydro-3H-1,4-benzodiazepinone-(2)], the 50% effect level in the series on mice [1] (ED50) was put at a dose of 1.58 mg/kg. Moreover, in series [2], the TD50 was found to be 9.7 mg/kg. For the same compound, the “ratio of ataxic activity” value with mice [3] worked out at 6.1.

Compound `O=C1CN=C(c2ccccc2F)c2nc(Cl)ccc2N1` [Example 10, 5-(-Fluorophenyl)-6-aza-7-chloro-1,2-dihydro-3H-1,4-benzodiazepinone-(2)] displayed an ED50 in the series with mice [1] of 1.63 mg/kg. The TD50 in series [2] was determined as 17 mg/kg. In addition, the “ratio of ataxic activity” value in the series with mice [3] was 10.4.

`O=C(O)CCC(=O)OC1N=C(c2ccccc2Cl)c2nc(Cl)ccc2NC1=O` (stereo not shown) [Example 12] gave an ED50 in the series on mice [1] of 7.4 mg/kg. The TD50 in series [2] was determined as 100 mg/kg. The “ratio of ataxic activity” value with mice [3] is 13.5.

Regarding `O=C1Nc2ccc(Cl)nc2C(c2ccccc2Cl)=NC1O` (stereo not shown) [Example 13, 3-Hydroxy-5-o-chlorophenyl-6-aza-7-chloro-1,2-dihydro-3H-1,4-benzodiazepinone-(2)], in the series on mice [1], the ED50 was determined as 2.4 mg/kg. Further, the TD50 in series [2] was determined as 36 mg/kg. Besides, the “ratio of ataxic activity” value with mice [3] was 15.0.

In the case of `CC(=O)OC1N=C(c2ccccc2Cl)c2nc(Cl)ccc2N(C(C)=O)C1=O` (stereo not shown) [Example 15, 1-Acetyl-3-acetoxy-5-(o-chlorophenyl)-6-aza-7-chloro-1,2-dihydro-3H-1,4-benzodiazepinone-(2)], in the series with mice [1], it took a dose of 15 mg/kg to reach the 50% effect level (ED50). The TD50 in series [2] was 100 mg/kg. Further, the “ratio of ataxic activity” value in the series on mice [3] was 6.7.

In the series with mice [1], `CN1C(=O)CN=C(c2ccccc2)c2nc(Cl)ccc21` [Example 17, 1-Methyl-5-phenyl-6-aza-7-chloro-1,2-dihydro-3H-1,4-benzodiazepinone-(2)] showed an ED50 of 4.2 mg/kg. Further, in series [2], the TD50 turned out to be 26 mg/kg. Further, the “ratio of ataxic activity” value in the series with mice [3] was found to be 6.2.

Turning to `C=CCN1C(=O)CN=C(c2ccccc2)c2nc(Cl)ccc21` [Example 18, 1-Allyl-5-phenyl-6-aza-7-chloro-1,2-dihydro-3H-1,4-benzodiazepinone-(2)], the ED50 in the series with mice [1] was found to be 11 mg/kg. For the same compound, the TD50 in series [2] came to 90 mg/kg. The “ratio of ataxic activity” value in the series on mice [3] stood at 8.2.

On to `O=C1CN=C(c2ccccc2)c2nc(Cl)ccc2N1CC1CC1` [Example 19], for which the ED50 in the series with mice [1] came to 9.75 mg/kg. In addition, in series [2], the TD50 was found to be 75 mg/kg. For the same compound, the “ratio of ataxic activity” value in the series with mice [3] was 7.7.

`CN1C(=O)CN=C(c2ccccc2Cl)c2nc(Cl)ccc21` [Example 21, 1-Methyl-5-(o-chlorophenyl)-6-aza-7-chloro-1,2-dihydro-3H-1,4-benzodiazepinone-(2)] showed an ED50 in the series on mice [1] of 0.98 mg/kg. Also, the TD50 in series [2] is 10 mg/kg. Besides, the “ratio of ataxic activity” value in the series on mice [3] is 10.2.

For `CN1C(=S)CN=C(c2ccccc2Cl)c2nc(Cl)ccc21` [Example 24, 1-Methyl-5-(o-chlorophenyl)-6-aza-7-chloro-1,2-dihydro-3H-1,4-benzodiazepinthione-(2)], it took a dose of 3.3 mg/kg to reach the 50% effect level in the series with mice [1] (ED50). In addition, in series [2], the TD50 was 39 mg/kg. Besides, the “ratio of ataxic activity” value with mice [3] amounted to 12.5.

Consider `CC(NN)c1ccccc1` (stereo not drawn) [alpha phenyl-ethyl hydrazine], for which the stimulating activity entry in series [5] is listed as “strong stimulating activity”.

As for `CN(C)CCOC(C)(c1ccccc1)c1ccc(Cl)cc1` (stereo not shown) [chlorphenoxamine], in series [4], the antihistamine activity entry is “reduced”. In addition, the anticholinergic activity entry in series [6] is “strengthening”.
